“And” between values parts separate entries of the source, which are not always exact repeats. Identical values can stand only once. Inconclusive results are not listed. The source made the active and inactive calls.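 Rule for the calls: active = compound whose fitted half-maximal inhibitory dose is at most twice its top valid dose in every replicate test; inconclusive = replicate test calls disagree with one another; inactive = all replicate tests inactive, including opposite-direction effects.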
Target: UDP-N-acetylbacillosamine N-acetyltransferase PglD (Campylobacter jejuni)
Test: inhibition of C. jejuni PglD N-acetyltransferase – biochemical, DTNB absorbance, dry powder samples, set 4, dose response (AID 686993)
Conditions: purified PglD, DTNB absorbance 412 nm, CoA release

Compound | AC50 | activity change, negative = inhibition (at 38 µM (top of the series)) | activity change, negative = inhibition (at 10 µM (top of the series))
Cc1c(C(=O)O)sc2nc(/C=C/c3ccccc3)[nH]c(=O)c12 | 8.04 µM | – | –
Cc1c(C(=O)O)sc2nc(/C=C/c3ccc4[nH]ccc4c3)[nH]c(=O)c12 | 3.97 µM | – | –
Cc1c(C(=O)O)sc2nc(/C=C/c3cccc(C(N)=O)c3)[nH]c(=O)c12 | 17.6 µM | – | –
Cc1c(C(=O)O)sc2nc(/C=C/c3ccc4ccccc4c3)[nH]c(=O)c12 | 30.5 µM | – | –
Cc1c(C(=O)O)sc2nc(/C=C/c3ccccn3)[nH]c(=O)c12 | 2.58 µM | – | –
Cc1c(C(=O)O)sc2nc(/C=C/C=C/c3ccccc3)[nH]c(=O)c12 | 18.2 µM | – | –
Cc1c(C(=O)O)sc2nc(/C=C/c3ccc(N)nc3)[nH]c(=O)c12 | 14.6 µM | – | –
Cc1c(C(=O)O)sc2nc(/C=C/c3ccc4cc[nH]c4c3)[nH]c(=O)c12 | 7.87 µM | – | –
Cc1c(C(=O)O)sc2nc(/C=C/c3cccc(O)c3)[nH]c(=O)c12 | 11.7 µM and 1.93 µM | inactive | –
Cc1c(C(=O)O)sc2nc(/C=C/c3cnc4ccccc4c3)[nH]c(=O)c12 | – | – | inactive
Cc1c(C(=O)O)sc2nc(/C=C/c3ccnc4ccccc34)[nH]c(=O)c12 | – | inactive | –
Cc1c(C(=O)O)sc2nc(/C=C/C3CC3)[nH]c(=O)c12 | – | inactive | –
Cc1c(C(=O)O)sc2nc(/C=C/c3ccncc3)[nH]c(=O)c12 | – | – | inactive
Cc1c(C(=O)O)sc2nc(/C=C/c3cccc(C(F)(F)F)c3)[nH]c(=O)c12 | 29.1 µM | – | –
Cc1c(C(=O)O)sc2nc(/C=C/c3cccc(F)c3)[nH]c(=O)c12 | 7.23 µM | – | –
Cc1c(C(=O)O)sc2nc(CCc3cccc(O)c3)[nH]c(=O)c12 | 8.28 µM | – | –
Cc1c(C(=O)O)sc2nc(/C=C/c3cc4ccccc4cn3)[nH]c(=O)c12 | 4.54 µM | – | –

From PubChem BioAssay AID686993 (Broad Institute, 2013)
